The text below walks through data of article PMC5340577 (Nuclear medicine and biology, 2016).

For data set [1] the following is noted: humans; cited from earlier work.
The nature of data set [2]: Stability of Re complex in aqueous solution by ^1H NMR. The class given is physicochemical. The following applies: D2O, pH 7.

Take `O=C([O-])CN=C([O-])CN=C([O-])CN=C([O-])C[S-].[O-2].[Tc+4]` [^99mTc-MAG3, ^99mTc-mercaptoacetyltriglycine]: the “clearance as percent of that of ^131I-OIH” value in data set [1] is on record as ~ 60%.
For the compound Na[Re(CO)3(FEDA)] [Re-4], the “stability in aqueous solution (^1H NMR signals)” value in data set [2] is listed as “no change for weeks”.
